Legend:
[1] = biological target: T1, Ribonuclease A (RNase A) (Bos taurus, UniProt P61823); assay: direct […]{1H} NMR titration (binding constant Ka); details: read-out: direct 31P{1H} NMR titration (binding constant Ka) (converted)
T1 construct: gene RNASE1
T1 sequence (P61823 27-150): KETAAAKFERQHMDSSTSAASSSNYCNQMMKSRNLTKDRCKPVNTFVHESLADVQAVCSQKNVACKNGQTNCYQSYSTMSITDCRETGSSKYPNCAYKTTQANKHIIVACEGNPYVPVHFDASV

[2] = biological target: T1, Ribonuclease A (RNase A); assay: […]{1H} NMR competition titration with RNase A·p3A (binding constant Ka); details: read-out: 31P{1H} NMR competition titration with RNase A.p3A (binding constant Ka) (converted)
[3] = biological target: T1, Ribonuclease A (RNase A); assay: X-ray cocrystal structure; RNase A inhibition assay (Ki); type: biochemical
[4] = biological target: T1, Ribonuclease A (RNase A); assay: X-ray cocrystal structure (soaking); FRET inhibition assay (Ki); […] NMR titration; type: biochemical

Structure (SMILES)	Ki [3]	Ki [4]	also measured
O=P1(O)OP(=O)(O)OP(=O)(O)OP(=O)(O)O1 [cP4i, tetrametaphosphate]			Kd [1]: 23500 nM
O=c1ccn([C@@H]2O[C@H](COP(=O)(O)OP(=O)(O)OP(=O)(O)OP(=O)(O)OP(=O)(O)O)[C@@H](O)[C@H]2O)c(=O)[nH]1 [p5U]			Kd [2]: 53.8 nM
O=c1ccn([C@@H]2O[C@H](COP(=O)(O)OP(=O)(O)OP(=O)(O)OP(=O)(O)OP(=O)(O)OP(=O)(O)O)[C@@H](O)[C@H]2O)c(=O)[nH]1 [p6U]		1100 ± 200 nM	

Second part, led by results:

Ki [3]	Ki [4]	Structure (SMILES)	also measured
3600 ± 600 nM		Nc1ncnc2c1ncn2[C@@H]1O[C@H](COP(=O)(O)OP(=O)(O)OP(=O)(O)OP(=O)(O)OP(=O)(O)OP(=O)(O)O)[C@@H](O)[C@H]1O [p6A]	
2600 ± 400 nM		Nc1ncnc2c1ncn2[C@@H]1O[C@H](COP(=O)(O)OP(=O)(O)OP(=O)(O)OP(=O)(O)OP(=O)(O)OP(=O)(O)OP(=O)(O)O)[C@@H](O)[C@H]1O [p7A]	
	1000 ± 200 nM	O=c1ccn([C@H]2O[C@@H](COP(=O)(O)OP(=O)(O)OP(=O)(O)OP(=O)(O)OP(=O)(O)OP(=O)(O)OP(=O)(O)O)[C@@H](O)[C@H]2O)c(=O)[nH]1 [p7U]	

Reference: publication PMC11273453, “Pentaphosphorylation via the Anhydride of Dihydrogen Pentametaphosphate: Access to Nucleoside Hexa- and Heptaphosphates and Study of Their Interaction with Ribonuclease A” (ACS Central Science, 2024)
